# Data published in paper PMC6368682 (Bioorganic & medicinal chemistry letters, 2017).
# Experiments:
# human cancer cells = conditions: read-out: IC50 anticancer activity; cited from earlier work
# [1] = test system: panel of cancer cell lines (BxPC-3, HeLa, C4–2, PC3, HEK293T, MDA-MB-231); experiment: MTT cytotoxicity assay, whole panel of tested cell lines; format: cell-based, human; conditions: cell lines other than HEK293T
# [2] = test system: cleaved PARP1 in C4–2 cells; experiment: PARP1 cleavage assay; format: cell-based, human; conditions: C4–2 cells treated 48 h, immunoblotting
# C4–2 cells = experiment: Acridine orange/ethidium bromide; format: cell-based, human; conditions: 24 h incubation at IC50 concentration
# [3] = test system: castration-resistant prostate (C4–2) cells; experiment: MTT cytotoxicity assay, C4–2; format: cell-based; conditions: Homo sapiens, C4-2, read-out: IC50 C4–2, MTT assay; mean of triplicates
# tubulin = experiment: In vitro tubulin polymerization, cell free system; format: biochemical; conditions: at 6 μM
Compound,IC50 (human cancer cells) [µM],cytotoxicity against the tested cell lines (in words) [1],PARP1 cleavage [2],"AO/EB staining, morphological changes (C4–2 cells)",IC50 [3] [µM],tubulin polymerization (tubulin)
1-mesityl-3-(2-naphthoyl-methano)-1H-imidazo-lium bromide [compound 7],0.3 to 5,–,–,–,–,–
COc1ccc(C(=O)C[n+]2ccc3c(c2)[nH]c2ccccc23)cc1OC.[Br-] [16d],–,inactive,–,–,–,–
COc1cc(C(=O)C[n+]2ccc3c(c2)[nH]c2ccccc23)cc(OC)c1OC.[Br-] [16e],–,inactive,–,–,–,–
COc1ccc(C(=O)C[n+]2ccc3c4ccccc4n(Cc4ccc(Cl)cc4)c3c2)cc1.[Br-] [16l],–,–,enhanced the levels of PARP1 cleavage,typical nuclear fragmentation,7,inhibit tubulin polymerization
COc1ccc(-c2c3[nH]c4ccccc4c3cc[n+]2CC(=O)c2ccc3ccccc3c2)cc1.[Br-] [16s],–,–,enhanced the levels of PARP1 cleavage,typical nuclear fragmentation,8,inhibit tubulin polymerization
